Experimental data published in patent US6525001B1, “Substituted pyrimidine and pyridine herbicides” (Mid-American Commercialization Corporation, priority 1997, dated 2003).

Experiments:
Format in all cases: in vivo
Set-up in all cases: key: 0 is no effect; 10 is complete control
[1] = test system: bedstraw (Galium aparine); assay: Test B pre-/postemergence
Summary of the method: (§1)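 Response scores run from 0, meaning no effect, to 10, meaning complete control, assigned by eye relative to controls twelve to sixteen days after spraying. Treatment was both preemergence on planted seed and postemergence on plants at the 1- to 4-leaf stage.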

[2] = test system: blackgrass (Alopecurus myosuroides); assay: Test B pre-/postemergence
Summary of the method: as §1

[3] = test system: broadleaf signalgrass (Brachiaria decumbens); assay: Test B pre-/postemergence
Summary of the method: as §1

[4] = test system: cocklebur (Xanthium strumarium); assay: Test B pre-/postemergence
Summary of the method: as §1

corn (Zea mays) = assay: Test B pre-/postemergence
Summary of the method: as §1

[5] = test system: crabgrass (Digitaria sanguinalis); assay: Test B pre-/postemergence
Summary of the method: as §1

[6] = test system: giant foxtail (Setaria faberii); assay: Test B pre-/postemergence
Summary of the method: as §1

[7] = test system: momingglory (Ipomoea hederacea); assay: Test B pre-/postemergence
Summary of the method: as §1

[8] = test system: pigweed (Amaranthus retroflexus); assay: Test B pre-/postemergence
Summary of the method: as §1

[9] = test system: purple nutsedge (Cyperus rotundus); assay: Test B pre-/postemergence
Summary of the method: as §1

rape (Brassica napus) = assay: Test B pre-/postemergence
Summary of the method: as §1

soybean (Glycine max) = assay: Test B pre-/postemergence
Summary of the method: as §1

[10] = test system: sugar beet (Beta vulgaris); assay: Test B pre-/postemergence
Summary of the method: as §1

[11] = test system: velvetleaf (Abutilon theophrasti); assay: Test B pre-/postemergence
Summary of the method: as §1

[12] = test system: wheat (Triticum aestivum); assay: Test B pre-/postemergence
Summary of the method: as §1

wild oat (Avena fatua) = assay: Test B pre-/postemergence
Summary of the method: as §1

[13] = test system: bamyardgrass (Echinochloa crus-galli); assay: Test B flood test
Summary of the method: (§2)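 Each value is a visual injury score relative to controls, with 10 meaning complete control and 0 no effect. Evaluation took place twelve to sixteen days after the 2-leaf-stage plants were treated and kept in the greenhouse.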

[14] = test system: duck salad (Heteranthera limosa); assay: Test B flood test
Summary of the method: as §2

rice (Oryza sativa) = assay: Test B flood test
Summary of the method: as §2

[15] = test system: smallflower flatsedge (Cyperus difformis); assay: Test B flood test
Summary of the method: as §2

[16] = Preemergence, Rate 62 g/ha, scale of 0 to 10
[17] = Rate 62 g/ha, Postemergence (flood test)
[18] = Rate 125 g/ha, Postemergence section (flood test species)
[19] = Rate 250 g/ha, Postemergence (flood test species)

## COc1cnc(-n2ccc(C(F)(F)F)n2)nc1C(=O)c1cccc(C(F)(F)F)c1 [Compound 60]
[1]; [16]
  Plant response rating, Bedstraw: 0
[1]; Rate 62 g/ha, Postemergence
  Bedstraw plant response rating: 2
[1]; Rate 125 g/ha, Postemergence
  Bedstraw plant response rating: 3
[1]; Rate 125 g/ha, Preemergence
  Plant response rating, Bedstraw: 0
[1]; Rate 250 g/ha, Postemergence
  Plant response rating, Bedstraw: 3
[1]; Rate 250 g/ha, Preemergence
  Plant response rating, Bedstraw: 1
[2]; [16]
  Plant response rating, Blackgrass: 1
[2]; Rate 62 g/ha, Postemergence
  Blackgrass plant response rating: 1
[2]; Rate 125 g/ha, Postemergence
  Blackgrass plant response rating: 1
[2]; Rate 125 g/ha, Preemergence
  Plant response rating, Blackgrass: 1
[2]; Rate 250 g/ha, Postemergence
  Plant response rating, Blackgrass: 2
[2]; Rate 250 g/ha, Preemergence
  Plant response rating, Blackgrass: 2
[3]; Rate 62 g/ha, Postemergence
  B. signalgrass plant response rating: 2
[3]; Rate 62 g/ha, Preemergence
  B. signalgrass plant response rating: 2
[3]; Rate 125 g/ha, Postemergence
  B. signalgrass plant response rating: 2
[3]; Rate 125 g/ha, Preemergence
  Plant response rating, B. signalgrass: 3
[3]; Rate 250 g/ha, Postemergence
  Plant response rating, B. signalgrass: 3
[3]; Rate 250 g/ha, Preemergence
  Plant response rating, B. signalgrass: 3
[4]; [16]
  Plant response rating, Cocklebur: 0
[4]; Rate 62 g/ha, Postemergence
  Cocklebur plant response rating: 3
[4]; Rate 125 g/ha, Postemergence
  Cocklebur plant response rating: 3
[4]; Rate 125 g/ha, Preemergence
  Plant response rating, Cocklebur: 0
[4]; Rate 250 g/ha, Postemergence
  Plant response rating, Cocklebur: 4
[4]; Rate 250 g/ha, Preemergence
  Plant response rating, Cocklebur: 0
Corn (Zea mays); [16]
  Plant response rating, Corn: 0
Corn (Zea mays); Rate 62 g/ha, Postemergence
  Corn plant response rating: 2
Corn (Zea mays); Rate 125 g/ha, Postemergence
  Corn plant response rating: 2
Corn (Zea mays); Rate 125 g/ha, Preemergence
  Plant response rating, Corn: 0
Corn (Zea mays); Rate 250 g/ha, Postemergence
  Plant response rating, Corn: 3
Corn (Zea mays); Rate 250 g/ha, Preemergence
  Plant response rating, Corn: 0
[5]; [16]
  Plant response rating, Crabgrass: 0
[5]; Rate 62 g/ha, Postemergence
  Crabgrass plant response rating: 2
[5]; Rate 125 g/ha, Postemergence
  Crabgrass plant response rating: 3
[5]; Rate 125 g/ha, Preemergence
  Plant response rating, Crabgrass: 2
[5]; Rate 250 g/ha, Postemergence
  Plant response rating, Crabgrass: 4
[5]; Rate 250 g/ha, Preemergence
  Plant response rating, Crabgrass: 6
[6]; [16]
  Plant response rating, Giant foxtail: 2
[6]; Rate 62 g/ha, Postemergence
  Giant foxtail plant response rating: 2
[6]; Rate 125 g/ha, Postemergence
  Giant foxtail plant response rating: 2
[6]; Rate 125 g/ha, Preemergence
  Plant response rating, Giant foxtail: 2
[6]; Rate 250 g/ha, Postemergence
  Plant response rating, Giant foxtail: 2
[6]; Rate 250 g/ha, Preemergence
  Plant response rating, Giant foxtail: 5
[7]; [16]
  Plant response rating, Morningglory: 1
[7]; Rate 62 g/ha, Postemergence
  Morningglory plant response rating: 2
[7]; Rate 125 g/ha, Postemergence
  Morningglory plant response rating: 4
[7]; Rate 125 g/ha, Preemergence
  Plant response rating, Morningglory: 2
[7]; Rate 250 g/ha, Postemergence
  Plant response rating, Morningglory: 9
[7]; Rate 250 g/ha, Preemergence
  Plant response rating, Morningglory: 5
[8]; [16]
  Plant response rating, Redroot pigweed: 6
[8]; Rate 62 g/ha, Postemergence
  Redroot pigweed plant response rating: 5
[8]; Rate 125 g/ha, Postemergence
  Redroot pigweed plant response rating: 7
[8]; Rate 125 g/ha, Preemergence
  Plant response rating, Redroot pigweed: 9
[8]; Rate 250 g/ha, Postemergence
  Plant response rating, Redroot pigweed: 7
[8]; Rate 250 g/ha, Preemergence
  Plant response rating, Redroot pigweed: 10
[9]; [16]
  Plant response rating, Nutsedge: 0
[9]; Rate 62 g/ha, Postemergence
  Nutsedge plant response rating: 0
[9]; Rate 125 g/ha, Postemergence
  Nutsedge plant response rating: 0
[9]; Rate 125 g/ha, Preemergence
  Plant response rating, Nutsedge: 0
[9]; Rate 250 g/ha, Postemergence
  Plant response rating, Nutsedge: 0
Rape (Brassica napus); [16]
  Plant response rating, Rape: 0
Rape (Brassica napus); Rate 62 g/ha, Postemergence
  Rape plant response rating: 3
Rape (Brassica napus); Rate 125 g/ha, Postemergence
  Rape plant response rating: 3
Rape (Brassica napus); Rate 125 g/ha, Preemergence
  Plant response rating, Rape: 0
Rape (Brassica napus); Rate 250 g/ha, Postemergence
  Plant response rating, Rape: 4
Rape (Brassica napus); Rate 250 g/ha, Preemergence
  Plant response rating, Rape: 1
Soybean (Glycine max); [16]
  Plant response rating, Soybean: 0
Soybean (Glycine max); Rate 62 g/ha, Postemergence
  Soybean plant response rating: 2
Soybean (Glycine max); Rate 125 g/ha, Postemergence
  Soybean plant response rating: 2
Soybean (Glycine max); Rate 125 g/ha, Preemergence
  Plant response rating, Soybean: 0
Soybean (Glycine max); Rate 250 g/ha, Postemergence
  Plant response rating, Soybean: 2
Soybean (Glycine max); Rate 250 g/ha, Preemergence
  Plant response rating, Soybean: 0
[10]; [16]
  Plant response rating, Sugarbeets: 6
[10]; Rate 62 g/ha, Postemergence
  Sugarbeets plant response rating: 8
[10]; Rate 125 g/ha, Postemergence
  Sugarbeets plant response rating: 8
[10]; Rate 125 g/ha, Preemergence
  Plant response rating, Sugarbeets: 8
[10]; Rate 250 g/ha, Postemergence
  Plant response rating, Sugarbeets: 9
[10]; Rate 250 g/ha, Preemergence
  Plant response rating, Sugarbeets: 9
[11]; [16]
  Plant response rating, Velvetleaf: 1
[11]; Rate 62 g/ha, Postemergence
  Velvetleaf plant response rating: 2
[11]; Rate 125 g/ha, Postemergence
  Velvetleaf plant response rating: 2
[11]; Rate 125 g/ha, Preemergence
  Plant response rating, Velvetleaf: 1
[11]; Rate 250 g/ha, Postemergence
  Plant response rating, Velvetleaf: 2
[11]; Rate 250 g/ha, Preemergence
  Plant response rating, Velvetleaf: 1
[12]; [16]
  Plant response rating, Wheat: 0
[12]; Rate 62 g/ha, Postemergence
  Wheat plant response rating: 2
[12]; Rate 125 g/ha, Postemergence
  Wheat plant response rating: 3
[12]; Rate 125 g/ha, Preemergence
  Plant response rating, Wheat: 0
[12]; Rate 250 g/ha, Postemergence
  Plant response rating, Wheat: 3
[12]; Rate 250 g/ha, Preemergence
  Plant response rating, Wheat: 0
Wild oat (Avena fatua); [16]
  Plant response rating, Wild oats: 0
Wild oat (Avena fatua); Rate 62 g/ha, Postemergence
  Wild oats plant response rating: 2
Wild oat (Avena fatua); Rate 125 g/ha, Postemergence
  Wild oats plant response rating: 2
Wild oat (Avena fatua); Rate 125 g/ha, Preemergence
  Plant response rating, Wild oats: 0
Wild oat (Avena fatua); Rate 250 g/ha, Postemergence
  Plant response rating, Wild oats: 2
Wild oat (Avena fatua); Rate 250 g/ha, Preemergence
  Plant response rating, Wild oats: 0
[13]; [17]
  Barnyardgrass plant response rating: 1
[13]; [18]
  Barnyardgrass plant response rating: 1
[13]; [19]
  Plant response rating, Barnyardgrass: 2
[14]; [17]
  Ducksalad plant response rating: 1
[14]; [18]
  Ducksalad plant response rating: 2
[14]; [19]
  Plant response rating, Ducksalad: 2
Rice (Oryza sativa); [17]
  Rice plant response rating: 0
Rice (Oryza sativa); [18]
  Rice plant response rating: 0
Rice (Oryza sativa); [19]
  Plant response rating, Rice: 1
[15]; [17]
  S. Flatsedge plant response rating: 4
[15]; [18]
  S. Flatsedge plant response rating: 5
[15]; [19]
  Plant response rating, S. Flatsedge: 6
